This is an account of results in publication PMC4644980, “The FDA-approved natural product dihydroergocristine reduces the production of the Alzheimer’s disease amyloid-β peptides” (Scientific Reports, 2015).

Several values for one entry are separate records, joined by “and”; a condition that tells them apart may be missing. Equal entries are not always repeated. Structures can show the parent of a compound that is named as a salt.

One assay concerns the target T1, Nicastrin (NCT) (Homo sapiens, UniProt Q92542).
T1 construct: Full length human NCT was purified as described previously; 6×His (C); FLAG (C); made in house; host or cells: High Five insect cells (baculovirus made in Sf9)
The assay is described as follows: surface plasmon resonance, Nicastrin immobilized. Type of assay: binding. As to conditions: SPR, Biacore T100, CM5 chip; read-out: equilibrium dissociation constant (Kd), Nicastrin (NCT). As for the experimental part: A Biacore sensor Chip NTA that is designed to bind His-tagged proteins was used to immobilize γ-secretase. The SPR assay was performed in a running buffer (10 mM HEPES, 150 mM NaCl in the presence of 1% DMSO, pH 7.4). The purified His-tagged γ-secretase overexpressing human PS1, Flag-Pen-2, Aph-1a2-HA, and NCT-V5/His (see above) was diluted 6 times in DMSO-free running buffer. For each binding curve, the running buffer containing 500 μM NiCl2 was first injected to saturate the NTA chip. Then, His-tagged γ-secretase was injected and immobilized on the Ni^2+ -coated sensor chip. Compounds at the indicated concentrations were injected onto the surface of the sensor chip, and the corresponding binding spectrum was recorded. The sensor chip was regenerated with regeneration buffer (10 mM HEPES, 150 mM NaCl, 350 mM EDTA, pH 8.3). Purified human NCT (100 μg) was immobilized onto the flow cell of a CM5 sensor chip in 10 mM sodium acetate (pH 4.0) by using an amine coupling kit. The SPR assay was performed in HBS-P running buffer (10 mM HEPES, 150 mM NaCl and 0.005% surfactant P20 in the presence of 1% DMSO, pH 7.4). […] The Kd values were determined with Biacore evaluation 3.1 software. […]
Recombinant bacmids were used to transfect Sf9 cells to make the baculovirus, which was then used to infect High Five suspension insect cells (Invitrogen). […]
(SPR reads the build-up and loss of mass on a sensor chip optically.)

For another assay, the target named is γ-secretase (Homo sapiens, UniProt P49768+Q92542). The assay is described as follows: surface plasmon resonance, γ-secretase immobilized. Type of assay: binding. On the set-up: made in house. The note with it: SPR, Biacore T100, NTA chip; read-out: equilibrium dissociation constant (Kd), γ-secretase. Here is the method:
A Biacore sensor Chip NTA that is designed to bind His-tagged proteins was used to immobilize γ-secretase. The SPR assay was performed in a running buffer (10 mM HEPES, 150 mM NaCl in the presence of 1% DMSO, pH 7.4). The purified His-tagged γ-secretase overexpressing human PS1, Flag-Pen-2, Aph-1a2-HA, and NCT-V5/His (see above) was diluted 6 times in DMSO-free running buffer. For each binding curve, the running buffer containing 500 μM NiCl2 was first injected to saturate the NTA chip. Then, His-tagged γ-secretase was injected and immobilized on the Ni^2+ -coated sensor chip. Compounds at the indicated concentrations were injected onto the surface of the sensor chip, and the corresponding binding spectrum was recorded. The sensor chip was regenerated with regeneration buffer (10 mM HEPES, 150 mM NaCl, 350 mM EDTA, pH 8.3). Purified human NCT (100 μg) was immobilized onto the flow cell of a CM5 sensor chip in 10 mM sodium acetate (pH 4.0) by using an amine coupling kit. The SPR assay was performed in HBS-P running buffer (10 mM HEPES, 150 mM NaCl and 0.005% surfactant P20 in the presence of 1% DMSO, pH 7.4). […] The Kd values were determined with Biacore evaluation 3.1 software.

In another assay the target is T2, purified γ-secretase (Homo sapiens, UniProt P49768+Q92542).
T2 construct: made in house
Put plainly: cell-free in vitro C100-Flag γ-secretase assay with purified enzyme. Type of assay: biochemical. The source says:
The density of the AICD-Flag and Aβ total bands was quantified by Odyssey software (Supplementary data Fig. S5). […] The residue was then separated by Bicine/urea SDS-PAGE, together with an Aβ standard of synthetic human Aβ38, Aβ40 and Aβ42, followed by Western blot detection with anti-Aβ antibody (6E10, left panel), or quantification by ELISA (right panel). Black bars, Aβ [1–40]; gray bars, Aβ[1–42]. Data were presented as the means ± sd. […] The change in response units over time is shown. […]
γ-Secretase was purified from S-20 cells as described previously. The recombinant APP-based protein substrate of γ-secretase, namely human C100-Flag, was overexpressed in E. coli and purified by using an anti-Flag M2 resin[31]. Full length human NCT was purified as described previously (for details, see Supplementary information)[32].
Cell-free in vitro γ-secretase assays using the recombinant C100-Flag substrate and purified γ-secretase were performed as described in the Supplementary information.
Aβ1-x peptides secreted in the cell media were quantitatively measured by ELISA (IBL, Gunma, Japan) according to the standard protocol from the manufacturer. Aβ40 and Aβ42 generated in the C100-Flag γ-secretase assays stopped with 0.5% SDS (final concentration) were quantified with the human Beta Amyloid or [1–42] colorimetric ELISA kit, respectively. […]
γ-Secretase activity assays
γ-Secretase purified from S-20 cells was solubilized in 0.2% (w/v) CHAPSO in 50 mM HEPES buffer (pH 7.0) containing of 150 mM NaCl, 5 mM MgCl2 and 5 mM CaCl2, and incubated with 0.1% (w/v) PC and 1 μM or otherwise indicated […]
concentrations of substrate at 37 °C for 4 h, after which the enzymatic reactions were stopped by adding 0.5% SDS (final concentration). The samples were analyzed by Western Blot for AICD-Flag or Aβ. […]

T1 sequence (Q92542 34-709): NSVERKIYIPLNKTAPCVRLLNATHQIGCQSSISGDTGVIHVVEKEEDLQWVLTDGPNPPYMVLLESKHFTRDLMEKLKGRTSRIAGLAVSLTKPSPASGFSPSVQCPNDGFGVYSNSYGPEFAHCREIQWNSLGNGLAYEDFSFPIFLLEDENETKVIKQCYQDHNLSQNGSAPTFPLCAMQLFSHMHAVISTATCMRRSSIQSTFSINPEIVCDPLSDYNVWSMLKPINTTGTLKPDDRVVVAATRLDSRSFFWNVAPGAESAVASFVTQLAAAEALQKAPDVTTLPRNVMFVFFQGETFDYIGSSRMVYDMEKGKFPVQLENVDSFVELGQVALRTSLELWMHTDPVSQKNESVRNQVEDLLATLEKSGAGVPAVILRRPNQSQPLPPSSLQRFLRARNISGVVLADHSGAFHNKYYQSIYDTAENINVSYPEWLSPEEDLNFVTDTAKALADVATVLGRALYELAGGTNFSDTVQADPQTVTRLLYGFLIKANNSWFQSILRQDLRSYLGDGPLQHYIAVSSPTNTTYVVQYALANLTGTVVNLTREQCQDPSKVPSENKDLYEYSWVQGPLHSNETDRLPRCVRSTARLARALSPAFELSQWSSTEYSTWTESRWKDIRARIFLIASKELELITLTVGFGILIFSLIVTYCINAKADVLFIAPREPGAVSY

`CC(C)[C@@]1(NC(=O)[C@@H]2C[C@@H]3c4cccc5[nH]cc(c45)C[C@H]3N(C)C2)O[C@@]2(O)[C@@H]3CCCN3C(=O)[C@H](Cc3ccccc3)N2C1=O` [DHEC, Dihydroergocristine methanesulfonate salt]: the Kd on Nicastrin (NCT) is 9.85 µM and ~10 µM and 9.8 µM and 10 µM; at γ-secretase, 0.0257 µM. Also, the “γ-secretase-dependent processing of C100-Flag into AICD-Flag or Aβ” value on purified γ-secretase (1 μM C100-Flag, 37 °C, 4 h) was “inhibited”. Besides, at purified γ-secretase (4 μM APP-C100 compared to 1 μM), the “inhibitory effect on γ-secretase at high substrate concentration” value was “greatly reduced inhibitory effect”. In addition, the “The potency of compound (in vitro C100 γ-secretase assay)” value at purified γ-secretase (200 µM, compared with DHEC, estimated by densitometry) is listed as “++”. Besides, the IC50 against purified γ-secretase (IC50, Aβ40 and Aβ42 production (cell-free assay), 1 μM C100-Flag, 37 °C, 4 h, ELISA) was ~100 µM and 100 µM.

In general, Kd refers to a measure of binding affinity in units of concentration. By IC50 is commonly meant the concentration that gives 50% inhibition.
